From patent US6627441B1, “Increasing levels of growth regulator and/or water stress during embryo development” (priority 1998, dated 2003) come the findings set out here.

In assay [1] the test system is white spruce somatic embryos. Description: Effect of water stress and ABA on somatic embryo moisture contents (Example 4). It counts as cell-based. The method, then: Water potentials were measured for liquid media containing various osmotica at a range of concentrations, which were plotted on a curve. Determinations were made using a vapour pressure osmometer (Wescor). Moisture content determinations were done using methods described previously by Attree et al. (U.S. Pat. No. 5,464,769).
Embryos were cultured on medium containing 3% sucrose and ABA, with additional osmoticum adjusted to vary water potentials, as shown in Table 4.
Embryos were cultured for six weeks and moisture contents determined. Determinations for each treatment were made weekly, with three replicates per treatment. 50 embryos per replicate were used. In some instances, particularly for the control with low osmoticum, insufficient embryos were produced. In these cases, the minimum number of embryos used per replicate was thirty. For weeks 0 to 2, the embryos were too small to be used for moisture content determinations, so whole tissue was used instead.

The test system of assay [2] is Douglas fir somatic embryos. The assay can be described thus: Douglas fir somatic embryogenesis (Example 11). It counts as cell-based. On the procedure:
Douglas fir may be cultured using sucrose at 1-3% (30-90 mM), however, other sugars may be used at the same concentrations. Maintenance cultures usually contain the sugar at about 1%. […] Douglas fir embryogenic tissue was induced from developing seed. Embryos contained in megametophytes were induced and maintained on TX maintenance medium having 1% sucrose. This medium contained 0.2 g/L glutamine and 0.2 g/L casein hydrolysate. Selected embryogenic tissue was subcultured biweekly per petri dish. Medium was solidified with 2.4 g/L PHYTAGEL™. This medium contained 9 μM 2,4-D and 4.5 μM BA. Liquid suspension cultures were maintained in flasks containing 50 mL liquid maintenance medium Liquid cultures were subcultured weekly. For maturation, the embryogenic suspension was first precultured in liquid medium without growth regulators, and subcultured weekly. The water potential of the maintenance cultures and precultures remained below 150 mmol/kg. After one or two weeks of preculture, 1 to 2 g of filtered tissue was resuspended in 10 mL fresh medium and 0.75 mL of the new suspension was pipetted onto the solid maturation medium. Maturation medium contained calcium chloride at 105 mg/L, and ammonium nitrate was included at 400 mg/L. Glutamine was used at 0.8 g/L for the first week then reduced to 0.1 g/L thereafter. Casein hydrolysate was maintained at 0.2 g/L. The sugar was increased to 2-3% and the medium was solidified with Phytagel at 2.8 to 3.4 g/L. ABA was added into the medium after filter sterilization. The maturation medium also contained PEG. The ABA and water potential were raised following the schedule in the following table.
In some instances, the PEG was reduced and the water potential made up to the desired level using lactose at 0% in the first week, 1% in week 2, 4% in weeks 3 and 4, 5% in week 5, and 6% in week 6. Although this allowed a firmer gel to set than otherwise would occur with PEG alone, it may not provide any other benefit over full PEG (see, for example, Table 8), particularly if liquid culture medium is used. […] The embryos were desiccated and stored in a freezer as described for spruce, or germinated directly without desiccation. For germination, embryos were placed on half-strength basal medium containing 0.4 g/L calcium nitrate, 0.2 g/L ammonium nitrate, no hormones and 2% sucrose and 0.6% agar. These were grown in the light.

Where [3] appears, read: treatment 3: PEG medium 290 mmol/kg with constant ABA 20 μM, six weeks.
Setting [4] is: ABA 30 to 60 μM and water potential 294 to 814 mmol/kg over 6 weeks.

In the case of `CC1=CC(=O)CC(C)(C)[C@@]1(O)/C=C/C(C)=C\C(=O)O` [ABA, abscisic acid], the greening of embryos entry in assay [1] (treatment 1: ABA 20 to 40 μM, 3% sucrose, 190 mmol/kg, after six weeks) is reported as “evidence of greening”; in assay [1] (setting [3]), “slight greening of cotyledons”; in assay [1] (treatment 5: ABA to 40 μM, PEG medium to 400 mmol/kg), “No greening”; in assay [1] (treatment 6: ABA to 40 μM, PEG medium to 540 mmol/kg) it was “No greening”. Moreover, the “moisture content of somatic embryos” value is given as “below 55%” in assay [1] (setting [3]); “further slight reductions in moisture content” in assay [1] (treatment 4: PEG medium 290 mmol/kg with increasing ABA 20, 30, 40 μM, compared with treatment 3); “a further reduction in moisture content” in assay [1] (treatment 5: ABA to 40 μM, PEG medium to 400 mmol/kg after week two, compared with treatment 4); about 40% in assay [1] (treatment 6: PEG water potential raised to 540 mmol/kg with ABA to 40 μM, end of six-week culture). For the same molecule, the “yield of mature somatic embryos” value in assay [1] (treatment 6: PEG water potential raised to 540 mmol/kg with ABA to 40 μM) was 300-350 mature somatic embryos per dish. Further, the “germination with shoot and needle development, frequency” value in assay [2] (setting [4]) is about 100%. The precocious germination entry in assay [2] (setting [4]) is “Precocious germination was prevented”. The “survival after transfer to soil in a greenhouse, frequency” value in assay [2] (somatic plants produced using the methods of this invention) was “up to 95%”.
